For 7 compounds, IC50 and inhibition results are on record in ChEMBL document CHEMBL1129652, “Substituted 1,2-dihydrophthalazines: potent, selective, and noncompetitive inhibitors of the AMPA receptor” (J Med Chem, 1996).

One may read the IC50 as the midpoint of a concentration-inhibition curve. Read a high IC50 as weaker potency in that assay. What is called inhibition is the relative decrease from the control value, in per cent.

The first assay has as its target Glutamate receptor ionotropic, AMPA (Rattus norvegicus, UniProt P19490+P19491+P19492+P19493).
Description: Inhibitory activity against AMPA receptor currents in rat cortical cells stimulated with 50 uM kainic acid
Turning to `CCCNC(=O)N1N=C(c2ccc(N)cc2)c2cc3c(cc2C1C)OCO3` (stereo not drawn), the concentration for half-maximal inhibition (IC50) worked out at 2.8 µM.
Regarding `CNC(=O)N1N=C(c2ccc(N)cc2)c2cc3c(cc2C1C)OCO3` (stereo not drawn), the half-maximal inhibitory concentration (IC50) was 23 µM.
The same measure, in the same setting: the same measure for `CNC(=O)N1N=C(c2ccc(N)cc2)c2cc3c(cc2CC1C)OCO3` (stereo not drawn) [GYKI-53655]: 1 µM; for `CC1c2cc3c(cc2C(c2ccc(N)cc2)=NN1C(=O)NC(C)(C)C)OCO3` (stereo not drawn): 5.4 µM.
As for `CC1=NN=C(c2ccc(N)cc2)c2cc3c(cc2C1)OCO3` [GYKI-52466], it took 10 µM to reach half-maximal inhibition (IC50).
Compound `CCNC(=O)N1N=C(c2ccc(N)cc2)c2cc3c(cc2C1C)OCO3` (stereo not drawn) had an IC50 of 7.2 µM.
Compound `CCCCNC(=O)N1N=C(c2ccc(N)cc2)c2cc3c(cc2C1C)OCO3` (stereo not drawn) showed an IC50 of 1.8 µM.

The next assay addresses Glutamate receptor ionotropic, AMPA (Rattus norvegicus) (UniProt P19491+P19492+P19493+P19490). Put plainly: Compound at 10 uM of kainic acid. The class given is functional.
`CNC(=O)N1N=C(c2ccc(N)cc2)c2cc3c(cc2C1C)OCO3` (stereo not drawn) had an inhibition of 13%.
